According to ChEMBL document CHEMBL5038574, “Selaginellin Derivatives from Selaginella tamariscina and Their Upregulating Effects on Low-Density Lipoprotein Receptor Expression” (J Nat Prod, 2021):
The source made the active and inactive calls. No cut-off for these calls is given here.

Tests used:
Type in all cases: functional, cell-based
[1] = test system: HepG2; assay: Up regulation of LDLR mRNA expression in human HepG2 cells at 50 uM for 24 hrs by qPCR analysis
[2] = test system: HepG2; assay: Up regulation of SREBP mRNA expression in human HepG2 cells at 50 uM for 24 hrs by qPCR analysis
[3] = test system: HepG2; assay: Up regulation of APOC2 mRNA expression in human HepG2 cells at 50 uM for 24 hrs by qPCR analysis
[4] = test system: HepG2; assay: Up regulation of protein expression in human HepG2 cells at 10 to 50 uM for 24 hrs by western blot analysis; details: dose 10-50 µM
[5] = test system: HepG2; assay: Up regulation of APOE mRNA expression in human HepG2 cells at 50 uM for 24 hrs by qPCR analysis

SMILES	Activity [1]	further results
O=C1C=CC(=C(c2ccc(O)cc2)c2c(-c3ccc(O)cc3)ccc(COc3ccc([C@@]4(c5ccc(O)cc5)c5cc(O)ccc5-c5ccc(CO)c(C#Cc6ccc(O)cc6)c54)cc3)c2C#Cc2ccc(O)cc2)C=C1	inactive	–
O=C1C=CC(=C(c2ccc(OCc3ccc(-c4ccc(O)cc4)c(C(=C4C=CC(=O)C=C4)c4ccc(O)cc4)c3C#Cc3ccc(O)cc3)cc2)c2c(-c3ccc(O)cc3)ccc(CO)c2C#Cc2ccc(O)cc2)C=C1	inactive	–
O=C1C=CC(=C(c2ccc(O)cc2)c2c(-c3ccc(O)cc3)ccc(COCc3ccc(-c4ccc(O)cc4)c(C(=C4C=CC(=O)C=C4)c4ccc(O)cc4)c3C#Cc3ccc(O)cc3)c2C#Cc2ccc(O)cc2)C=C1	inactive	–
COc1ccc(C(=C2C=CC(=O)C=C2)c2c(-c3ccc(O)cc3)ccc(COc3ccc(C(=C4C=CC(=O)C=C4)c4c(-c5ccc(O)cc5)ccc(CO)c4C#Cc4ccc(O)cc4)cc3)c2C#Cc2ccc(O)cc2)cc1	inactive	–
O=C1C=CC(=C(c2ccc(O)cc2)c2c(-c3ccc(O)cc3)ccc(CO)c2C#Cc2ccc(O)cc2)C=C1	inactive	–
COCc1ccc2c(c1CC(=O)c1ccc(O)cc1)C(c1ccc(OC)cc1)(c1ccc(OC)cc1)c1cc(O)ccc1-2	Active	Activity [2]: Active; Activity [3]: Active; Activity [4]: Active; Activity [5]: Active
